Test results taken from patent US4755526A, “Method of inhibiting aromatase” (Eli Lilly and Company, priority 1984, dated 1988).
Counter-ions that a name gives are not always drawn.

The molecules below were run on estrogen synthesis (assay: Estrogen synthesis inhibition in rats (uterine weight and ovarian steroid concentrations)). Conditions: 30 ppm in feed (approximately 3 mg/kg/day), ovaries.
Format: in vivo, female Wistar rats
Procedure: Test compounds were administered for seven days either daily by gavage in corn oil or as a component of the diet. Control animals received either corn oil or diet without the test compound. Beginning on the fourth day of the test, all animals treated with the test compound and one half of the control animals were given a subcutaneous injection of 1.0 mg of testosterone propionate in corn oil. The remaining control animals received only an equivalent volume of corn oil.
After two hours, the animals were killed by decapitation. Uteri were isolated, trimmed of extraneous connective tissue, and weighed. […] In the control animals treated with testosterone propionate, estrogens produced by aromatization stimulated the uterus resulting in an increase in weight.
The ovarian steroids were extracted with 1.5 ml of 9:1 (v/v) toluene/ethanol to which had been added 25 to 100 mcg each of unlabelled estradiol, estriol, and estrone, and approximately 1000 dpm of [^14 C]-estradiol. The samples were vortexed, centrifuged at 500×g for 10 minutes, and the organic phase was transferred to a conical vial. Two additional extractions were performed on the residue in the same way. The pooled organic extracts were evaporated for subsequent thin-layer chromatography.
Ovarian proteins were precipitated by the addition of 5.0 ml of ethanol to the remaining aqueous phase. After an overnight incubation at 4° C., the samples were centrifuged at 1500×g for 10 minutes. The supernatant was discarded, and the pellet was dissolved in 0.3N potassium hydroxide.
The organic residue from each above extraction was redissolved in 9:1 (v/v) dichloromethane/methanol. The solution of each sample was applied to separate silica gel thin layer chromatography plates which contained a fluorescent indicator. The plates were developed in the first dimension with 160:38:1.5:0.5 (v/v/v/v) dichloromethane/ethyl acetate/methanol/acetic acid to within 3 cm of the top of the plate. After air-drying, the plate was developed in the second dimension with 180:19:1 (v/v/v) dichloromethane/methanol/ammonium hydroxide. The plate was air-dried and viewed under 254 nm UV light.
The visible spots were marked and the plates were sprayed with primulin (0.001% in 4:1 v/v acetone/water) according to the method of Wright, J. Chromatography, 59, 220 (1971) which allowed for the identification of additional steroids under 365 nm UV light. The spots were scraped from the plate using a glass wool plugged Pasteur pipet attached to a vacuum line. The steroids were eluted directly into scintillation vials by the addition of 0.2 ml of dichloromethane followed by two washes each of 2.0 ml of methanol. The organic solvent was evaporated and 10.0 ml of scintillation fluid (Beckman Ready Solv-NA) was added to the vials. Samples were analyzed by liquid scintillation spectrometry. Corrections were made based on the recoveries of the [^14 C]-steroid. Steroid concentrations are expressed as femtomoles per milligram protein.

Row | SMILES | Mean Steroid Concentration, estradiol | Mean Steroid Concentration, estriol
1 | Clc1ccc(C(c2ccc(Cl)cc2)n2cnnc2)cc1 [4-[bis(4-chlorophenyl)methyl]-4H--1,2,4-triazole] | 0.46 femtomoles per milligram of protein | 0.60 femtomoles per milligram of protein

Same assay, conditions: 30 ppm in feed (approximately 3 mg/kg/day), testosterone propionate-treated rats

Row | SMILES | Mean Uterine Weight
2 | Clc1ccc(C(c2ccc(Cl)cc2)(c2cncnc2)n2ccnc2)cc1 [5-[bis(4-chlorophenyl)-1H--imidazol-1-ylmethyl]pyrimidine] | 107.5 mg
3 | Clc1ccc(C(c2ccc(Cl)cc2)n2cnnc2)cc1 [4-[bis(4-chlorophenyl)methyl]-4H--1,2,4-triazole] | 113.3 mg
4 | COc1ccccc1C(c1ccccc1)n1ccnc1 (stereo not drawn) [1-[(2-methoxyphenyl)phenylmethyl]-1H--imidazole nitrate] | 176.0 mg

Same assay, conditions: 300 ppm in feed (approximately 30 mg/kg/day), ovaries

Row | SMILES | Mean Steroid Concentration, estradiol | Mean Steroid Concentration, estriol | Mean Steroid Concentration, estrone
5 | Clc1ccc(C(c2ccc(Cl)cc2)n2cnnc2)cc1 [4-[bis(4-chlorophenyl)methyl]-4H--1,2,4-triazole] | 0.48 femtomoles per milligram of protein | 0.64 femtomoles per milligram of protein | 0.10 femtomoles per milligram of protein

Same assay, conditions: 300 ppm in feed (approximately 30 mg/kg/day), testosterone propionate-treated rats

Row | SMILES | Mean Uterine Weight
6 | Clc1ccc(C(c2ccc(Cl)cc2)(c2cncnc2)n2ccnc2)cc1 [5-[bis(4-chlorophenyl)-1H--imidazol-1-ylmethyl]pyrimidine] | 87.6 mg
7 | Clc1ccc(C(c2ccc(Cl)cc2)n2cnnc2)cc1 [4-[bis(4-chlorophenyl)methyl]-4H--1,2,4-triazole] | 97.3 mg
8 | COc1ccccc1C(c1ccccc1)n1ccnc1 (stereo not drawn) [1-[(2-methoxyphenyl)phenylmethyl]-1H--imidazole nitrate] | 212.6 mg

The molecules below were run against T1, aromatase (Rattus norvegicus, UniProt P22443) (assay: Aromatase inhibition in the rat ovarian microsome assay). Conditions: EC50: concentration required to achieve 50% inhibition of aromatase activity, substrate (androstenedione) concentration 0.1 μM.
T1 construct: ovarian microsomes are obtained from rats treated with pregnant mares serum gonadotropin; from tissue; host or cells: ovarian microsomes of rats treated with pregnant mares serum gonadotropin
T1 sequence (P22443 1-508): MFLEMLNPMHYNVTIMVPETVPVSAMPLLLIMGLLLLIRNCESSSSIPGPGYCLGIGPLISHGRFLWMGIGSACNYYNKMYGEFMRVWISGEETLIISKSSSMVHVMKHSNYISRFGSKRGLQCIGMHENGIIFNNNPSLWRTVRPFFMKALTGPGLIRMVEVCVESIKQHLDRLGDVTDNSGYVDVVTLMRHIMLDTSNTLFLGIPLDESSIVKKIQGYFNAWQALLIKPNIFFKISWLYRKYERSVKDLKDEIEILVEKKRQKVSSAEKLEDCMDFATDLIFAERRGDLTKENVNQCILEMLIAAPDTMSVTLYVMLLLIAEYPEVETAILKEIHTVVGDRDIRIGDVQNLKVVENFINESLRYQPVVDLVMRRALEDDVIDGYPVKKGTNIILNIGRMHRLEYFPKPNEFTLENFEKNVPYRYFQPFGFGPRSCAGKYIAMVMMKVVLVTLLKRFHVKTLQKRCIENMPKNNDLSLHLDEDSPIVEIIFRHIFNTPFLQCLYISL
Format: biochemical
Procedure: In this test system, ovarian microsomes are obtained from rats treated with pregnant mares serum gonadotropin. Test compounds are added to reaction vials containing 0.1 μM 4-androstene-3,17-dione, 100,000 dpm 1,2[^3 H]-androstenedione, the microsomes and a NADPH generating system. The concentrations of the inhibitors tested ranged between 0.005 and 10 μM.

Row | SMILES | EC50
9 | Cc1nccn1C(c1ccccc1)(c1ccc(Cl)cc1)c1ccc(Cl)cc1 [1-[bis(4-chlorophenyl)phenylmethyl]-2-methyl-1H--imidazole] | 94 nM
10 | Fc1ccccc1Cn1ccnc1 [1-[(2-fluorophenyl)methyl]-1H--imidazole nitrate] | 2650 nM
11 | Clc1ccc(Cn2ccnc2)cc1 [1-(4-chlorobenzyl)imidazole hydrochloride] | 450 nM
12 | Clc1cccc(Cn2ccnc2)c1 [1-(3-chlorobenzyl)imidazole] | 3600 nM
13 | Cc1nccn1C(c1ccccc1)(c1ccc(F)cc1)c1ccc(F)cc1 [1-[bis(4-fluorophenyl)phenylmethyl]-2-methyl-1H--imidazole] | 80 nM
14 | Fc1ccc(C(c2ccc(Cl)cc2)n2cncn2)cc1 (stereo not drawn) [1-[(4-chlorophenyl)(4-fluorophenyl)methyl]-1H--1,2,4-triazole] | < 50 nM
15 | Fc1ccc(C(c2ccc(Cl)cc2)n2cnnc2)cc1 (stereo not drawn) [4-[(4-chlorophenyl)(4-fluorophenyl)methyl]-4H--1,2,4-triazole] | 80 nM
16 | CC(C)(C)C(c1ccc(Cl)cc1)(c1cccnc1)n1ccnc1 (stereo not drawn) [3-(α-tert-butyl-4-chloro-α-imidazol-1-ylbenzyl)pyridine] | 100 nM
17 | c1ccc(C2(n3ccnc3)CCCCC2)cc1 [1-(1-phenylcyclohexyl)-1H--imidazole] | 93 nM
18 | Clc1ccc(Cn2ccnc2)cc1Cl [1-[(3,4-dichlorophenyl)methyl]-1H--imidazole hydrochloride] | 320 nM
19 | COc1cccc(Cn2ccnc2)c1 [1-[(3-methoxyphenyl)methyl]-1H--imidazole ethanedioate] | 1250 nM
20 | C#CC(c1ccc(Cl)cc1)(c1ccc(Cl)cc1)n1ccnc1 [1-[1,1-bis(4-chlorophenyl)-2-propynyl]-1H--imidazole] | < 50 nM
21 | c1ccc(-c2ccc(Cn3ccnc3)cc2)cc1 [1-[(1,1'-biphenyl)-4-ylmethyl]-1H--imidazole hydrochloride] | 1650 nM
22 | O=[N+]([O-])c1ccccc1Cn1ccnc1 [1-[(2-nitrophenyl)methyl]-1H--imidazole hydrochloride] | 3100 nM
23 | Clc1ccc(C(c2ccccc2)(c2ccccc2)n2ccnc2)cc1 [1-[(4-chlorophenyl)diphenylmethyl)-1H--imidazole] | 69 nM
24 | c1ccc(C(c2ccccc2)(c2ccccn2)n2ccnc2)cc1 [2-(1H--imidazol-1-yldiphenylmethyl)pyridine] | < 50 nM
25 | c1ccc(C(c2ccccc2)(c2cncnc2)n2cncn2)cc1 [5-(diphenyl-1H--1,2,4-triazol-1-ylmethyl)pyrimidine] | 825 nM
26 | Fc1ccc(C(c2ccccc2)(c2ccc(F)cc2)n2cncn2)cc1 [1-[bis(4-fluorophenyl)phenylmethyl]-1H--1,2,4-triazole] | 80 nM
27 | Clc1cccc(Cl)c1COc1ccccc1Cn1ccnc1 [1-[(2-[2,6-dichlorobenzyloxy]phenyl)methyl]-1H--imidazole nitrate] | 125 nM
28 | C=C(c1ccccc1OCc1cccc(Cl)c1)n1ccnc1 [1-[1-(2-[(3-chlorophenyl)methoxy]phenyl)ethenyl]-1H--imidazole hydrochloride] | 165 nM
29 | Clc1ccc(C(c2ccccc2)(c2ccccc2)n2cncn2)cc1 [1-[(4-chlorophenyl)diphenylmethyl]-1H--1,2,4-triazole] | 95 nM
30 | CCOc1ccccc1C(c1ccccc1)n1ccnc1 (stereo not drawn) [1-[(2-ethoxyphenyl)phenylmethyl]-1H--imidazole nitrate] | 100 nM
31 | Clc1cc(Cl)cc(Cn2ccnc2)c1 [1-[(3,5-dichlorophenyl)methyl]-1H--imidazole hydrochloride] | 110 nM
32 | Clc1ccccc1C(c1ccccc1Cl)n1cncn1 [1-[bis(2-chlorophenyl)methyl]-1H--1,2,4-triazole] | > 5000 nM
33 | c1ccc2c(Cn3ccnc3)cccc2c1 [1-(1-naphthalenylmethyl)-1H--imidazole hydrochloride] | 330 nM
34 | Clc1ccc(Cl)c(C(c2cccnc2)(c2cc(Cl)ccc2Cl)n2ccnc2)c1 [3-(bis[2,5-dichlorophenyl]-1H--imidazol-1-ylmethyl)pyridine] | 210 nM

Row | SMILES | EC50
35 | CCOc1ccccc1C(CC)n1ccnc1 (stereo not drawn) [1-[1-(2-ethoxyphenyl)propyl]-1H--imidazole nitrate] | 140 nM
36 | Clc1ccccc1C(c1cccnc1)(c1ccccc1Cl)n1ccnc1 [3-[bis(2-chlorophenyl)-1H--imidazol-1-ylmethyl]pyridine] | 305 nM
37 | COc1ccc(C(c2ccccc2)(c2ccc(OC)cc2)n2ccnc2)cc1 [1-[α,α-bis(4-methoxyphenyl)benzyl]imidazole] | 64 nM
38 | Cc1cccc(Cn2ccnc2)c1 [1-[(3-methylphenyl)methyl]-1H--imidazole ethanedioate] | 920 nM
39 | c1ccc(C(c2ccccc2)n2cncn2)cc1 [1-diphenylmethyl-1H--1,2,4-triazole] | > 5000 nM
40 | FC(F)(F)c1ccc(Cn2ccnc2)cc1 [1-[(4-trifluoromethylphenyl)methyl]-1H--imidazole ethanedioate] | 190 nM
41 | Clc1ccc(C(c2ccccc2)n2cncn2)cc1 (stereo not drawn) [1-[(4-chlorophenyl)phenylmethyl]-1H--1,2,4-triazole] | 150 nM
42 | Fc1ccc(C(c2ccc(Br)cc2)n2cncn2)cc1 (stereo not drawn) [1-[(4-bromophenyl)(4-fluorophenyl)methyl]-1H--1,2,4-triazole] | < 50 nM
43 | c1ccc(Cn2ccnc2)cc1 [1-benzylimidazole] | 2800 nM
44 | O=[N+]([O-])c1cccc(Cn2ccnc2)c1 [1-[(3-nitrophenyl)methyl]-1H--imidazole hydrochloride] | 1130 nM
45 | FC(F)(F)c1ccc(C(c2ccc(Cl)cc2)(c2cncnc2)n2ccnc2)cc1 (stereo not drawn) [5-[(4-chlorophenyl)-1H--imidazol-1-yl(4-trifluoromethylphenyl)methyl]pyrimidine] | 30 nM
46 | Cc1nccn1C(c1ccccc1)(c1ccccc1)c1ccc(Cl)cc1 [1-[(4-chlorophenyl)diphenylmethyl]-2-methyl-1H--imidazole] | 80 nM
47 | Clc1ccc(C(c2ccccc2)(c2ccc(Cl)cc2)n2cncn2)cc1 [1-[bis(4-chlorophenyl)phenylmethyl]-1H--1,2,4-triazole] | 110 nM
48 | COc1ccccc1Cn1ccnc1 [1-[(2-methoxyphenyl)methyl]-1H--imidazole hydrochloride] | 2100 nM
49 | Cc1nccn1C(c1ccc(Cl)cc1)(c1ccc(Cl)cc1)c1ccc(Cl)cc1 [1-tris(4-chlorophenyl)methyl-2-methyl-1H--imidazole] | 270 nM
50 | Clc1ccc(Cn2ccnc2)cc1 [1-(4-chlorobenzyl)-1H--imidazole] | 140 nM
51 | Cc1nccn1C(c1ccccc1)(c1ccccc1)c1ccccc1 [2-methyl-1-tritylimidazole] | 1300 nM
52 | Cc1ccccc1Cn1ccnc1 [1-[(2-methylphenyl)methyl]-1H--imidazole hydrochloride] | 1500 nM
53 | c1ccc(C(c2ccccc2)(c2cccc3ccccc23)n2ccnc2)cc1 [1-(1-naphthalenyldiphenylmethyl)-1H--imidazole] | 96 nM
54 | CC(c1ccccc1Cl)n1ccnc1 (stereo not drawn) [1-[1-(2-chlorophenyl)ethyl]-1H--imidazole hydrochloride] | 2500 nM
55 | Clc1ccc(C(c2ccc(Cl)cc2)(c2ccc(Cl)cc2)n2cncn2)cc1 [1-[tris(4-chlorophenyl)methyl]-1H--1,2,4-triazole] | 420 nM
56 | FC(F)(F)c1cccc(Cn2ccnc2)c1 [1-[(3-trifluoromethylphenyl)methyl]-1H--imidazole hydrochloride] | 390 nM
57 | Clc1ccc(Cl)c(Cn2ccnc2)c1 [1-[(2,5-dichlorophenyl)methyl]-1H--imidazole hydrochloride] | 160 nM
58 | Clc1ccc(C(c2cccnc2)(c2ccccc2Cl)n2ccnc2)cc1 (stereo not drawn) [3-[(2-chlorophenyl)(4-chlorophenyl)-1H--imidazol-1-ylmethyl]pyridine] | 86 nM
59 | CCCC(c1ccccc1OCc1ccc(Cl)cc1Cl)n1ccnc1 (stereo not drawn) [1-[1-(2-[2,4-dichlorobenzyloxy]phenyl)butyl]-1H--imidazole nitrate] | 125 nM
60 | Fc1ccc(C(c2ccccc2)(c2ccc(F)cc2)n2ccnc2)cc1 [1-bis(4-fluorophenyl)phenylmethyl]-1H--imidazole] | 40 nM
